Where a name gives a salt, the structure may show the parent alone. Read-outs that look alike come from different tables or passages of the source.
How the values were obtained:
[1] = system: SMN2 minigene (full length SMN2 minigene mRNA containing SMN2 exon 7); assay: SMN2 minigene mRNA splicing RT-qPCR assay in cultured cells; type: cell-based, human; conditions: Homo sapiens, HEK293-H, read-out: EC1.5x for production of full length SMN2 mRNA
Description: The reverse transcription-quantitative PCR-based (RT-qPCR) assay is used to quantify the level of the full length SMN2 minigene mRNA containing SMN2 exon 7 in a HEK293H cell line stably transfected with said minigene and treated with a test compound.
Protocol. HEK293H cells stably transfected with the SMN2-A minigene construct described above (10,000 cells/well) are seeded in 200 μL of cell culture medium (DMEM plus 10% FBS, with 200 μg/mL hygromycin) in 96-well flat-bottom plates and the plate is immediately swirled to ensure proper dispersal of cells, forming an even monolayer of cells. Cells are allowed to attach for at least 4-6 hours. […] A solution of test compound (1 μL, 200× in DMSO) is added to each cell-containing well and the plate is incubated for 24 hours in a cell culture incubator (37° C., 5% CO2, 100% relative humidity). 2 replicates are prepared for each test compound concentration. The cells are then lysed in Cells-To-Ct lysis buffer and the lysate is stored at −80° C.
The combination of these three oligonucleotides detects only SMN1 or SMN2 minigenes (RT-qPCR) and will not detect endogenous SMN1 or SMN2 genes.
The SMN forward and reverse primers are used at final concentrations of 0.4 μM.
The SMN2-minigene GAPDH mix (15 μL total volume) is prepared by combining 7.5 μL of 2×RT-PCR buffer, 0.4 μL of 25×RT-PCR enzyme mix, 0.75 μL of 20×GAPDH primer-probe mix, 4.0075 μL of water, 2 μL of 10-fold diluted cell lysate, 0.06 μL of 100 μM SMN forward primer, 0.06 μL of 100 μM SMN reverse primer, and 0.225 μL of 100 μM SMN probe.
PCR is carried out at the following temperatures for the indicated time: Step 1: 48° C. (15 min); Step 2: 95° C. (10 min); Step 3: 95° C. (15 sec); Step 4: 60° C. (1 min); then repeat Steps 3 and 4 for a total of 40 cycles.
Each reaction mixture contains both SMN2-A minigene and GAPDH primers/probe sets (multiplex design), allowing simultaneous measurement of the levels of two transcripts.
Two SMN spliced products are generated from the SMN2 minigene. The first spliced product containing exon 7, corresponding to full length SMN2 mRNA, is called SMN2mini FL. The second one lacking exon 7 is called SMN2mini Δ7.
The amplification efficiency E is calculated from the slope of the amplification curve for SMN2mini FL and GAPDH individually. The abundances of SMN2mini FL and GAPDH are then calculated as […], where Ct is the threshold value for each amplicon. The abundance of SMN2mini FL is normalized to GAPDH abundance. The normalized SMN2mini FL abundance from test compound-treated samples is then divided by normalized SMN2mini FL abundance from vehicle-treated cells to determine the level of SMN2 FL mRNA relative to vehicle control.
An EC1.5x for production of full length SMN2 mRNA between >3 μM and ≤30 μM is indicated by one star (*), an EC1.5x between >1 μM and ≤3 μM is indicated by two stars (**), an EC1.5x between >0.3 μM and ≤1 μM is indicated by three stars (***), an EC1.5x between >0.1 μM and ≤0.3 μM is indicated by four stars (****) and an EC1.5x≤0.1 μM is indicated by five stars (*****).

[2] = system: Smn protein; assay: Smn protein assay in cultured cells (SMN HTRF); type: cell-based, human; conditions: for EC1.5x (concentration giving 1.5-fold Smn protein increase): read-out: EC1.5x for Smn protein expression
Description: The SMN HTRF (homogeneous time resolved fluorescence) assay is used to quantify the level of Smn protein in SMA patient fibroblast cells treated with test compounds.
Protocol. Cells are thawed and cultured in DMEM-10% FBS for 72 hours. Cells are trypsinized, counted and resuspended to a concentration of 25,000 cells/mL in DMEM-10% FBS. […] 1 μL of test compound solution is transferred to cell-containing wells and cells are incubated for 48 hours in a cell culture incubator (37° C., 5% CO2, 100% relative humidity). Triplicate samples are set up for each test compound concentration. After 48 hours, the supernatant is removed from the wells and 25 μL of the RIPA lysis buffer, containing protease inhibitors, is added to the wells and incubated with shaking at room temperature for 1 hour. 25 μL of the diluent is added and then 35 μL of the resulting lysate is transferred to a 384-well plate, where each well contains 5 μL of the antibody solution (1:100 dilution of anti-SMN d2 and anti-SMN kryptate in SMN reconstitution buffer). The plate is centrifuged for 1 minute to bring the solution to the bottom of the wells, then incubated overnight at room temperature. Fluorescence for each well of the plate at 665 nm and 620 nm is measured on an EnVision multilabel plate reader (Perkin-Elmer).
The normalized fluorescence signal is calculated for each sample, Blank and vehicle control well by dividing the signal at 665 nm by the signal at 620 nm. Normalizing the signal accounts for possible fluorescence quenching due to the matrix effect of the lysate. The ΔF value (a measurement of Smn protein abundance) for each sample well is calculated by subtracting the normalized average fluorescence for the Blank control wells from the normalized fluorescence for each sample well and then dividing this difference by the normalized average fluorescence for the Blank control wells. The resulting ΔF value for each sample well represents the Smn protein abundance from test compound-treated samples. The ΔF value for each sample well is divided by the ΔF value for the vehicle control wells to calculate the fold increase in Smn protein abundance relative to the vehicle control.
An EC1.5x for Smn protein expression between >3 μM and ≤10 μM is indicated by one star (*), an EC1.5x between >1 and ≤3 μM is indicated by two stars (**), an EC1.5x between >0.3 μM and ≤1 μM is indicated by three stars (***) and an EC1.5x≤0.3 μM is indicated by four stars (****).

[3] = HEK293H cells stably transfected with SMN2-A minigene, 24 hours, 7-point concentration curve, 1.5-fold relative to vehicle-treated cells
[4] = SMA patient fibroblast cells, 48 hours, 7-point concentration data, fold increase relative to vehicle control (SMN HTRF)
[5] = SMA Type 1 patient fibroblast cells (GM03813), 48 hours, 7-point concentration curve, SMN HTRF, concentration producing 1.5 times Smn protein vs DMSO vehicle control

How did the EC (1.5-fold) [1, 3] turn out when COc1ccc(-c2cc3c(F)cc(N4CCN(C)CC4)cc3oc2=O)cc1OC [Compound 405, 3-(3,4-dimethoxyphenyl)-5-fluoro-7-(4-methylpiperazin-1-yl)-2H-chromen-2-one] was run?
Its EC (1.5-fold) is 3 to 30 µM.

What about the “maximum fold (Fold) increase of Smn protein” value (“maximum fold (Fold) increase” for short) [2, 4] of the same compound?
The value was “** (fold increase between >1.2 and ≤1.35)”.

Cc1cn2cc(-c3cc4ccc(C5=CCN(C)CC5)cc4oc3=O)nc2c(C)n1 [Compound 800, 3-(6,8-dimethylimidazo[1,2-a]pyrazin-2-yl)-7-(1-methyl-1,2,3,6-tetrahydropyridin-4-yl)-2H-chromen-2-one] was tested. Which EC (1.5-fold) ([1]; 24 h) did it give?
Its EC (1.5-fold) is < 0.1 µM.

What about the “maximum fold (Fold) increase” value [2] of the same compound?
Its value is “***** (key: *: maximum fold increase of ≤1.2; **: fold increase between >1.2 and ≤1.35; ***: fold increase between >1.35 and ≤1.5; ****: fold increase between >1.5 and ≤1.65; *****: fold increase >1.65)”.

And the EC1.5x (concentration giving 1.5-fold Smn protein increase) [2]?
Its EC1.5x (concentration giving 1.5-fold Smn protein increase) is < 300 nM.

How did the EC (1.5-fold) [1, 3] turn out when Cc1cn2cc(-c3cc4ccc(N5CCN(C(C)C)[C@H](C)C5)cc4oc3=O)cc2c(C)n1 [Compound 813, 3-(1,3-dimethylpyrrolo[1,2-a]pyrazin-7-yl)-7-[(3R)-3-methyl-4-(propan-2-yl)piperazin-1-yl]-2H-chromen-2-one] was run?
Its EC (1.5-fold) is < 0.1 µM.

What about the EC1.5x (concentration giving 1.5-fold Smn protein increase) [2, 5] of the same compound?
Its EC1.5x (concentration giving 1.5-fold Smn protein increase) is < 300 nM.

What about the “maximum fold (Fold) increase” value [2, 4] of the same compound?
The value was “**** (fold increase between >1.5 and ≤1.65)”.

What does the source list for Cc1cn2cc(-c3cc4ccc(N5CCN(C)CC5)cc4oc3=O)nc2cn1 [Compound 568, 3-(6-methylimidazo[1,2-a]pyrazin-2-yl)-7-(4-methylpiperazin-1-yl)-2H-chromen-2-one]?
EC (1.5-fold) [1, 3]: < 0.1 µM; EC1.5x (concentration giving 1.5-fold Smn protein increase) [2, 5]: < 300 nM; maximum fold (Fold) increase of Smn protein [2, 4]: ***** (fold increase >1.65)

What does the source list for Cc1ccn2cc(-c3cc4ccc(O[C@@H]5CCNC5)cc4oc3=O)nc2c1 [Compound 323, 3-(7-methylimidazo[1,2-a]pyridin-2-yl)-7-[(3R)-pyirolidin-3-yloxy]-2H-chromen-2-one hydrochloride (1:2)]?
EC (1.5-fold) [1, 3]: 0.3 to 1 µM; maximum fold (Fold) increase of Smn protein [2, 4]: ** (fold increase between >1.2 and ≤1.35)

Which EC (1.5-fold) [1, 3] does the source give for Cc1cn2cc(-c3cc4ccc(N5CCC(N)CC5)cc4oc3=O)cc2c(C)n1 [Compound 714, 7-(4-aminopiperidin-1-yl)-3-(1,3-dimethylpyrrolo[1,2-a]pyrazin-7-yl)-2H-chromen-2-one] here?
Its EC (1.5-fold) is 0.1 to 0.3 µM.

What about the “maximum fold (Fold) increase” value [2, 4] of the same compound?
The value was “* (maximum fold increase of ≤1.2)”.

How did the EC (1.5-fold) [1, 3] turn out when C[C@@H]1CN(c2ccc3cc(-c4cc5ncccn5c4)c(=O)oc3c2)C[C@H](C)N1 [Compound 580, 7-[(3R,5S)-3,5-dimethylpiperazin-1-yl]-3-(pyrrolo[1,2-a]pyrimidin-7-yl)-2H-chromen-2-one] was run?
Its EC (1.5-fold) is 1 to 3 µM.

And the “maximum fold (Fold) increase” value [2, 4]?
The value was “* (maximum fold increase of ≤1.2)”.

For C[C@H]1CN(c2ccc3cc(-c4cc5cnccc5s4)c(=O)oc3c2)CCN1 [Compound 629, 7-[(3S)-3-methylpiperazin-1-yl]-3-(thieno[3,2-c]pyridin-2-yl)-2H-chromen-2-one], which EC (1.5-fold) [1, 3] is on record?
The EC (1.5-fold) was 0.3 to 1 µM.

And the “maximum fold (Fold) increase” value [2, 4]?
Its value is “* (maximum fold increase of ≤1.2)”.

How did the EC (1.5-fold) [1, 3] turn out when O=c1oc2cc(N3C[C@@H]4C[C@H]3CN4)ccc2cc1-c1cn2cccnc2n1 [Compound 129, 7-[(1S,4S)-2,5-diazabicyclo[2.2.1]hept-2-yl]-3-(imidazo[1,2a]pyrimidin-2-yl)-2H-chromen-2-one hydrochloride (1:3)] was run?
The EC (1.5-fold) was 0.3 to 1 µM.

What about the “maximum fold (Fold) increase” value [2, 4] of the same compound?
The value was “** (fold increase between >1.2 and ≤1.35)”.

How did the EC (1.5-fold) [1, 3] turn out when Cc1cn2cc(-c3cc4ccc(CCCNCCO)cc4oc3=O)nc2c(C)n1 [Compound 879, 3-(6,8-dimethylimidazo[1,2-a]pyrazin-2-yl)-7-{3-[(2-hydroxyethyl)amino]propyl}-2H-chromen-2-one] was run?
The EC (1.5-fold) was < 0.1 µM.

And the EC1.5x (concentration giving 1.5-fold Smn protein increase) [2, 5]?
Its EC1.5x (concentration giving 1.5-fold Smn protein increase) is < 300 nM.

And the “maximum fold (Fold) increase” value [2, 4]?
Its value is “**** (fold increase between >1.5 and ≤1.65)”.

Which results are given for C[C@H]1CN(c2ccc3cc(-c4ccc5nccn5c4)c(=O)oc3c2)CCN1 [Compound 981, 3-(imidazo[1,2-a]pyridin-6-yl)-7-[(3S)-3-methylpiperazin-1-yl]-2H-chromen-2-one]?
EC (1.5-fold) [1, 3]: 0.1 to 0.3 µM; EC1.5x (concentration giving 1.5-fold Smn protein increase) [2, 5]: 1000 to 3000 nM; maximum fold (Fold) increase of Smn protein [2, 4]: **** (fold increase between >1.5 and ≤1.65)

With Cc1cc2sc(-c3cc4ccc(N5CCN(C)CC5)cc4oc3=O)cc2c(C)n1 [Compound 819, 3-(4,6-dimethylthieno[3,2-c]pyridin-2-yl)-7-(4-methylpiperazin-1-yl)-2H-chromen-2-one] as the compound, how does the EC (1.5-fold) [1, 3] read?
The EC (1.5-fold) was < 0.1 µM.

And the “maximum fold (Fold) increase” value [2, 4]?
Its value is “*** (fold increase between >1.35 and ≤1.5)”.

CN1CCN(c2cc(F)c3cc(-c4cn5cccnc5n4)c(=O)oc3c2)CC1 [Compound 351, 5-fluoro-3-(imidazo[1,2-a]pyrimidin-2-yl)-7-(4-methylpiperazin-1-yl)-2H-chromen-2-one] was tested. Which EC (1.5-fold) [1, 3] did it give?
The EC (1.5-fold) was 0.3 to 1 µM.

What about the “maximum fold (Fold) increase” value [2, 4] of the same compound?
Its value is “* (maximum fold increase of ≤1.2)”.

Which results are given for Cc1cn2cc(-c3cc4ccc(N5CCC(O)CC5)cc4oc3=O)nc2c(C)n1 [Compound 975, 3-(6,8-dimethylimidazo[1,2-a]pyrazin-2-yl)-7-(4-hydroxypiperidin-1-yl)-2H-chromen-2-one]?
EC (1.5-fold) [1, 3]: 0.3 to 1 µM; maximum fold (Fold) increase of Smn protein [2, 4]: *** (fold increase between >1.35 and ≤1.5)

Which results are given for COCCN1CCN(c2ccc3cc(-c4cc5c(C)nc(C)cc5s4)c(=O)oc3c2)CC1 [Compound 820, 3-(4,6-dimethylthieno[3,2-c]pyridin-2-yl)-7-[4-(2-methoxyethyl)piperazin-1-yl]-2H-chromen-2-one]?
EC (1.5-fold) [1, 3]: 0.3 to 1 µM; maximum fold (Fold) increase of Smn protein [2, 4]: ** (fold increase between >1.2 and ≤1.35)

From patent publication USRE47689E1, “Compounds for treating spinal muscular atrophy” (PTC Therapeutics, Inc., priority 2011, dated 2019)
